Like-named read-outs stand apart in the source and are kept apart here. Positions of bridges follow the written chain, without caps; N, C: chain ends. Non-standard residues stand in square brackets, D forms with d. Residues, ends and D or L forms follow the SMILES beside them. Abu = CC[C@H](N)C(=O)O
How the values were obtained:
human erythrocytes = type: cell-based; settings: for HC10 / HC50: red cells of human, 1 h
Procedure: The hemolytic activity of each peptide was determined as previously described. Briefly, human erythrocytes (red blood cells, hRBC; Divbioscience, Ulvenhout, Netherlands) were washed 2-times with sterile phosphate buffered saline (PBS; Thermo Fisher Scientific) and pelleted by centrifugation at 800 rpm for 5 min; then resuspended in DMEM^FBS to a final erythrocyte concentration of 8% (v/v). Then, 100 µL of this hRBC solution was distributed to each well of sterile 96-well flat-bottom microplates (Greiner Bio-One) containing serial two-fold dilutions of arenicin, arenicin-Abu derivative or controls in DMEM^FBS to a final volume of 200 µL. After 1 h incubation at 37 °C, microplates were centrifuged at 800 rpm for 5 min. Then, 100 µL of supernatant were carefully transferred to a new 96-well microplate, and OD405 corresponding to the release of hemoglobin was measured using a microplate reader (Biotek, Synergy Mx, Colmar, France). DMEM^FBS and Triton-X100 at 0.1% (v/v) were used as negative (i.e., 0% hemolysis) and positive (i.e., 100% hemolysis) controls, respectively. The concentration of peptide leading to 10% and 50% of hemolysis compared to the positive control was defined as the HC10 and HC50, respectively, and was determined by fitting the dose–response curves in Kaleidagraph 4.2 software (Synergy Software). All experiments were done in triplicate.

A498 cells = experiment: Cytotoxic assay on human cells (resazurin); type: cell-based
Procedure: (§1) The toxicity of each peptide was evaluated on human cell lines using a resazurin assay as previously described. Human lung epithelial cells BEAS-2B (ATCC CRL-9609), liver cells HepG2 (ATCC HB-8065), and kidney cells A498 (ATCC HTB-44) were used. All cells were cultured in Dulbecco's modified essential medium (DMEM) supplemented with 10% heat-inactivated fetal calf serum (FBS, Thermo Fisher Scientific), and 1% L-glutamine (Thermo Fisher Scientific) (DMEM^FBS) at 37 °C in a 5% CO2 incubator to subconfluent concentrations. Cells were detached with trypsin–EDTA solution (Thermo Fisher Scientific), and around 1 × 10^4 cells/well were seeded in 96-well flat-bottom microplates (Greiner Bio-One) with a lid, and cultured for additional 48–72 h at 37 °C and 5% CO2 until cell confluence. The medium was removed, and 100 µL of serial two-fold dilutions of the peptides in DMEM^FBS were added to each well. Following a 48 h-incubation period at 37 °C and 5% CO2, cell viability was evaluated using the resazurin assay as described above. Fluorescence of the resazurin metabolite resorufin (λex/λem = 530/590 nm) was measured after 2 h incubation at 37 °C and 5% CO2 in the dark, with a microplate reader (Biotek, Synergy Mx, Colmar, France). The cytotoxic concentration of peptide leading to 50% cell death as compared to the control was defined as the CC50, and was determined by fitting the RFU% sigmoidal dose–response curves in Kaleidagraph 4.2 software (Synergy Software). All experiments were conducted in triplicate.

M. abscessus S and R = type: cell-based, Mycobacterium abscessus
Procedure: Mycobacterium abscessus S and R strains (CIP 104536^ T) were grown in Middlebrook 7H9 medium supplemented with 0.05% (v/v) Tween 80, 0.2% (v/v) glycerol and 10% (v/v) oleic acid–albumin–dextrose–catalase (OADC enrichment; BD Difco) (7H9-S^OADC) at 37 °C under stirring (200 rpm). We used Ar-1 (RWC^3VYAYVRVRGVLVRYRRC^20W) and Ar-1-Abu, in which the cysteines in position 3 and 20 were replaced by alpha-amino-n-butyric acid (Abu) residues. […]
For determining the antimicrobial activity of the different peptides, the Middlebrook 7H9 broth microdilution method was used in sterile 96-well flat-bottom Greiner Bio-One polypropylene microplates with lid (Thermo Fisher Scientific) using the resazurin microtiter assay (REMA). […] Fluorescence of the metabolite resorufin (λex/λem = 530/590 nm) was measured using a Tecan Spark 10 M ™ multimode microplate reader (Tecan Group Ltd, France). Relative fluorescence units (RFU) were defined as: RFU% = (test well FU/mean FU of control B wells) × 100. MIC50 and MIC90 values were determined by fitting the RFU% sigmoidal dose–response curves in Kaleidagraph 4.2 software (Synergy Software, Reading, PA). […]

[1] = type: cell-based, human
Procedure: as §1

[2] = type: cell-based, human; remark: listed apart in the source
Procedure: as §1

M. abscessus S = experiment: Induction of resistance assay; type: cell-based, Mycobacterium abscessus; settings: after 20–30 days of exposure
Procedure: (§2) Induction of bacterial resistance by Ar-1 was achieved by exposure of M. abscessus S and R to Ar-1 or to the control antibiotic clarithromycin (CLR) for 42 consecutive days, and with repeated broth microdilution susceptibility testing and subsequent MIC determination. After each MIC determination, the well containing the highest concentration of Ar-1 or CLR that allows bacterial growth was diluted 1:1000 in 7H9-S^OADC and used as inoculum for the next MIC assay with fresh amounts of Ar-1 or CLR.

M. abscessus R = experiment: Induction of resistance assay; type: cell-based, Mycobacterium abscessus; settings: after 20–30 days of exposure
Procedure: as §2

| Structure (SMILES) | HC10 (human erythrocytes) | HC50 (human erythrocytes) | toxicity towards kidney A498 cells (in words) (A498 cells) | mean MIC50 (M. abscessus S and R) | CC50 [1] | CC50 [2] | hemolytic activity on human erythrocytes (in words, considering HC10) (human erythrocytes) | increase in MIC90 values (M. abscessus S) | increase in MIC90 values (M. abscessus R) |
| --- | --- | --- | --- | --- | --- | --- | --- | --- | --- |
| CC(C)C[C@@H]1NC(=O)[C@H](C(C)C)NC(=O)CNC(=O)[C@H](CCCNC(=N)N)NC(=O)[C@H](C(C)C)NC(=O)[C@H](CCCNC(=N)N)NC(=O)[C@H](C(C)C)NC(=O)[C@H](Cc2ccc(O)cc2)NC(=O)[C@H](C)NC(=O)[C@H](Cc2ccc(O)cc2)NC(=O)[C@H](C(C)C)NC(=O)[C@@H](NC(=O)[C@H](Cc2c[nH]c3ccccc23)NC(=O)[C@@H](N)CCCNC(=N)N)CSSC[C@@H](C(=O)N[C@@H](Cc2c[nH]c3ccccc23)C(=O)O)NC(=O)[C@H](CCCNC(=N)N)NC(=O)[C@H](CCCNC(=N)N)NC(=O)[C@H](Cc2ccc(O)cc2)NC(=O)[C@H](CCCNC(=N)N)NC(=O)[C@H](C(C)C)NC1=O [Ar-1] (H-RWCVYAYVRVRGVLVRYRRCW-OH; disulfide 3-20) | 20.2 ± 1.8 µM | > 100 µM | nontoxic | 11.5 ± 1.0 µM | > 100 µM | > 100 µM |  |  |  |
| CC[C@H](NC(=O)[C@H](CCCNC(=N)N)NC(=O)[C@H](CCCNC(=N)N)NC(=O)[C@H](Cc1ccc(O)cc1)NC(=O)[C@H](CCCNC(=N)N)NC(=O)[C@@H](NC(=O)[C@H](CC(C)C)NC(=O)[C@@H](NC(=O)CNC(=O)[C@H](CCCNC(=N)N)NC(=O)[C@@H](NC(=O)[C@H](CCCNC(=N)N)NC(=O)[C@@H](NC(=O)[C@H](Cc1ccc(O)cc1)NC(=O)[C@H](C)NC(=O)[C@H](Cc1ccc(O)cc1)NC(=O)[C@@H](NC(=O)[C@H](CC)NC(=O)[C@H](Cc1c[nH]c2ccccc12)NC(=O)[C@@H](N)CCCNC(=N)N)C(C)C)C(C)C)C(C)C)C(C)C)C(C)C)C(=O)N[C@@H](Cc1c[nH]c2ccccc12)C(=O)O [Ar-1-Abu] (H-RW[Abu]VYAYVRVRGVLVRYRR[Abu]W-OH) | > 100 µM | > 100 µM | nontoxic |  | > 100 µM | > 100 µM | totally inactive |  |  |
| CC[C@H]1OC(=O)[C@H](C)[C@@H](O[C@H]2C[C@@](C)(OC)[C@@H](O)[C@H](C)O2)[C@H](C)[C@@H](O[C@@H]2O[C@H](C)C[C@H](N(C)C)[C@H]2O)[C@](C)(OC)C[C@@H](C)C(=O)[C@H](C)[C@@H](O)[C@]1(C)O [CLR, clarithromycin] |  |  |  |  |  |  |  | 32 fold | 32 fold |

Reference: publication PMC10823733, “Promising antibacterial efficacy of arenicin peptides against the emerging opportunistic pathogen Mycobacterium abscessus” (Journal of Biomedical Science, 2024)
